The target in test [1] is T1, Progesterone receptor (Homo sapiens, UniProt P06401).
T1 sequence (P06401 whole entry): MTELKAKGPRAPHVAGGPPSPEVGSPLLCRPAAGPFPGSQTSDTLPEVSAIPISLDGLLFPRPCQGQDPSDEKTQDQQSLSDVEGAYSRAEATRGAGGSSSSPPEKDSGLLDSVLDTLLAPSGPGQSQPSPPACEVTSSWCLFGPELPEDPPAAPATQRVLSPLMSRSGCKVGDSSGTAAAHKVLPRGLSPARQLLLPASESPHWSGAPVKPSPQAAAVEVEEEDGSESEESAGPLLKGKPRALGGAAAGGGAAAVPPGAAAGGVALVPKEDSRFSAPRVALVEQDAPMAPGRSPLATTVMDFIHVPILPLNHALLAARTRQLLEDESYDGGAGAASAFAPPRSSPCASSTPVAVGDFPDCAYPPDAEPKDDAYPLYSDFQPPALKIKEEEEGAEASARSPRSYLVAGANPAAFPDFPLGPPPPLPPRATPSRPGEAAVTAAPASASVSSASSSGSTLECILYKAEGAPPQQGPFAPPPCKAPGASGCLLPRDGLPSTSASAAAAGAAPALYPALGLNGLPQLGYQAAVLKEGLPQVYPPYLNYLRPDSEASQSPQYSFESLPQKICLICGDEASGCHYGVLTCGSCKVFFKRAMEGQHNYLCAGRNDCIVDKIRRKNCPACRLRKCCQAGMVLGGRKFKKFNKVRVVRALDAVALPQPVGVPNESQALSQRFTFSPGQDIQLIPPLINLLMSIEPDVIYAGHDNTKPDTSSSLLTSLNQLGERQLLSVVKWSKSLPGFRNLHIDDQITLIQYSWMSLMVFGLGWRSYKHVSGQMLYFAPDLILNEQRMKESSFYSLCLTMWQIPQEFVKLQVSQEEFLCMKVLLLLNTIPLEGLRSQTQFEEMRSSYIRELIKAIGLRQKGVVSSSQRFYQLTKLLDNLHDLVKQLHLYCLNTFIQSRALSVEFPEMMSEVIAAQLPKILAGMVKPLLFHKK
As to the kind of experiment: Inhibitory concentration for antagonistic activity towards human progesterone receptor (hPR) using the cotransfection assay in CV-1 cells; Not active. It is filed as functional, cell-based.

Test [2] concerns the target T1, Progesterone receptor. Kind of test: Binding affinity to human progesterone receptor.
Test [3] addresses T2, Progesterone receptor (Homo sapiens) (UniProt P06401).
T2 sequence (whole entry): T1 sequence (P06401 whole entry)
As to the kind of experiment: Agonist efficacy towards human progesterone receptor (hPR) using the cotransfection assay in CV-1 cells. The class given is functional, cell-based.

The target of test [4] is T2, Progesterone receptor (Homo sapiens). As to the kind of experiment: Antagonistic efficacy towards human progesterone receptor (hPR) using the cotransfection assay in CV-1 cells; Not active. It is filed as functional, cell-based.
The target in test [5] is T1, Progesterone receptor. Kind of test: Effective concentration for agonist activity towards human progesterone receptor (hPR) using the cotransfection assay in CV-1 cells. The class given is functional, cell-based.
For test [6], the target named is T2, Progesterone receptor (Homo sapiens). As to the kind of experiment: Agonist efficacy towards human progesterone receptor (hPR) expressed in CV-1 cells; Not active. The class given is functional, cell-based.
In test [7] the target is T1, Progesterone receptor. Kind of test: Effective concentration for agonist activity towards human progesterone receptor (hPR) expressed in CV-1 cells; Not active. It is filed as functional, cell-based.
The target of test [8] is T1, Progesterone receptor. Kind of test: Inhibitory concentration for antagonistic activity towards human progesterone receptor (hPR) using the cotransfection assay in CV-1 cells. It is filed as functional, cell-based.
For test [9], the target named is T2, Progesterone receptor (Homo sapiens). As to the kind of experiment: Antagonistic efficacy towards human progesterone receptor (hPR) using the cotransfection assay in CV-1 cells. It is filed as functional, cell-based.
Test [10] deals with T1, Progesterone receptor. As to the kind of experiment: Inhibition of antagonist binding to human progesterone receptor (hPR); Not active.
Another test has as its target T3, Androgen receptor (Homo sapiens, UniProt P10275).
T3 sequence (P10275 whole entry): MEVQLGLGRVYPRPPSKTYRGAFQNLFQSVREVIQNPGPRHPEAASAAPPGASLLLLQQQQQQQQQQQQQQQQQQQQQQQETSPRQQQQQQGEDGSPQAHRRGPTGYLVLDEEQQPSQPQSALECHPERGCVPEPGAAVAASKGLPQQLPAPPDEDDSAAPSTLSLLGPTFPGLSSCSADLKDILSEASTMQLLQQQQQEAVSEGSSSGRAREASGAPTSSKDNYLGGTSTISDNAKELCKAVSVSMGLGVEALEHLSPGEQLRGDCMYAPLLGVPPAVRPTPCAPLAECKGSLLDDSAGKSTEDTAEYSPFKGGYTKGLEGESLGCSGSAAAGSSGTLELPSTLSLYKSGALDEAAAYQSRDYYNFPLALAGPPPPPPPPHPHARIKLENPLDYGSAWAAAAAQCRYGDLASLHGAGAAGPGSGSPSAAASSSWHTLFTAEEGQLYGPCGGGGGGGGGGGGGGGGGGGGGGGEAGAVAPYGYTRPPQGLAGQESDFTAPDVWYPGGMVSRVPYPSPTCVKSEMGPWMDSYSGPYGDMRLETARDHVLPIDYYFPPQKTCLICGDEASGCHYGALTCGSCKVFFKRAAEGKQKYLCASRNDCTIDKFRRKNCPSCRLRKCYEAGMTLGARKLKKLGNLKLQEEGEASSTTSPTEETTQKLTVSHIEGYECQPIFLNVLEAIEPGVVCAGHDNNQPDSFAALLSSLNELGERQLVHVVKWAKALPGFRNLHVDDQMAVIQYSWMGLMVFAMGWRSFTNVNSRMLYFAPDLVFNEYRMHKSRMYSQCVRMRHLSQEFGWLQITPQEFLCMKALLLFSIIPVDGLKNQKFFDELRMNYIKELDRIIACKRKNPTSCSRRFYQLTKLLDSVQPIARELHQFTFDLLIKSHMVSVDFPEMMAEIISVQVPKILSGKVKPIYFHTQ
As to the kind of experiment: Antagonist activity against human Androgen receptor. It is filed as functional.

Test [11] has as its target T4, Mineralocorticoid receptor (Homo sapiens) (UniProt P08235).
T4 sequence (whole entry): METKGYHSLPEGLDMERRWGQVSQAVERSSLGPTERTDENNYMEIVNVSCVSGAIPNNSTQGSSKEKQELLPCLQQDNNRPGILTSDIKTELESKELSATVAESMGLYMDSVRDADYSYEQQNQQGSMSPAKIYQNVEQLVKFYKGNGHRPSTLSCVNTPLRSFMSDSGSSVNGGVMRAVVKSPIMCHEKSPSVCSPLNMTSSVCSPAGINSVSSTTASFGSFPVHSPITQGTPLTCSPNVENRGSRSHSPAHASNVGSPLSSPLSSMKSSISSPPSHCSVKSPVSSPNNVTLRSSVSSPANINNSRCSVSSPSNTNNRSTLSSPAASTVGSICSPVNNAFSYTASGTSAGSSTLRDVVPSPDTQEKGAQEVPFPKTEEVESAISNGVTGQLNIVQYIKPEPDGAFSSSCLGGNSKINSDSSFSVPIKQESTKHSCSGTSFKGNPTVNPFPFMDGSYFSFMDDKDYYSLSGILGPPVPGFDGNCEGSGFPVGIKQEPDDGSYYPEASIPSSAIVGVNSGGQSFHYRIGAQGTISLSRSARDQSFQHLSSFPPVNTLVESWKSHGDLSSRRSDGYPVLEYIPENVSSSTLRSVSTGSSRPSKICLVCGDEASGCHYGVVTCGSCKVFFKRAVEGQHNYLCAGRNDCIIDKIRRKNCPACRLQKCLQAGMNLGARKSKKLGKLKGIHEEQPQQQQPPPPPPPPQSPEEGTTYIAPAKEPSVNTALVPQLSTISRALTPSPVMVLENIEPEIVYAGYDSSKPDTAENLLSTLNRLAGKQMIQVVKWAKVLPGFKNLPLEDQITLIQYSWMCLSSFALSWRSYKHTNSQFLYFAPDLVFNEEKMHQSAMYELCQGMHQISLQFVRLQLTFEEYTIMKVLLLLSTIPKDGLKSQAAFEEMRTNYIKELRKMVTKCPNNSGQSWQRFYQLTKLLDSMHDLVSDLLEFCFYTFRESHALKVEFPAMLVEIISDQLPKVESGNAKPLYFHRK
As to the kind of experiment: Antagonist efficacy at mineralocorticoid receptor (hMR). It is filed as functional.

The target in test [12] is T5, Mineralocorticoid receptor (Homo sapiens, UniProt P08235).
T5 sequence (P08235 whole entry): T4 sequence (whole entry)
As to the kind of experiment: Antagonist activity at mineralocorticoid receptor (hMR). It is filed as functional.

A further test concerns the target T6, Glucocorticoid receptor (Homo sapiens, UniProt P04150).
T6 sequence (P04150 whole entry): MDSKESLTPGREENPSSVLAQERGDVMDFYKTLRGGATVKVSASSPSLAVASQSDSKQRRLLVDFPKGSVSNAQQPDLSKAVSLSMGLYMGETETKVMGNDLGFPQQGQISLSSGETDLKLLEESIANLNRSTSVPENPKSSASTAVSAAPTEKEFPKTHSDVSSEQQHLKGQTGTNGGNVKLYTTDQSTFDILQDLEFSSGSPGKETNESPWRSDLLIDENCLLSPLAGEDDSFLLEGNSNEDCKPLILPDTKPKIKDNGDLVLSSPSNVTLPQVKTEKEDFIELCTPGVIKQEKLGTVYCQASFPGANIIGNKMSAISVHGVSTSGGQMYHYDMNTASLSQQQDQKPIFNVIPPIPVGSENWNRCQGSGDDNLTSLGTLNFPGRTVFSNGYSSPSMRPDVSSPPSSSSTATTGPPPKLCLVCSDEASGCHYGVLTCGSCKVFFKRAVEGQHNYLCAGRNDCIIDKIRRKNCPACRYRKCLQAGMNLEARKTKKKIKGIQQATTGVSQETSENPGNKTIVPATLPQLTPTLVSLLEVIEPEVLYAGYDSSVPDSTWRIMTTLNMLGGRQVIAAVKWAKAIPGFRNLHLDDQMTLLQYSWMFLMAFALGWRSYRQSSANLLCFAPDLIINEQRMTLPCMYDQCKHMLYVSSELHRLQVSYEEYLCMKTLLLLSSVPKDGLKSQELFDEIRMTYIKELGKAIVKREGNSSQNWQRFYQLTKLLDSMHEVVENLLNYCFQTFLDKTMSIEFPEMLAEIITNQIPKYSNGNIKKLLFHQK
Kind of test: Antagonist activity at glucocorticoid receptor. It is filed as functional.

Active and inactive are the calls of the source. No cut-off for these calls is given here. Where only a bound is given, the exact number is not on record here.

The text below walks through data of ChEMBL document CHEMBL1136068 (Bioorg Med Chem Lett, 2003).

Consider `C=C1Oc2ccc(F)cc2-c2ccc3c(c21)C(C)=CC(C)(C)N3`, for which, at Progesterone receptor [1], the IC50 result was “Not Active”. The same compound showed an inhibition constant Ki at Progesterone receptor [2] of 6.1 nM. The compound further registered an Efficacy in test [3] of 87%. Moreover, the Efficacy result in test [4] is “inactive”. The EC50 on Progesterone receptor [5] was found to be 1000 nM.
As to `CC1=CC(C)(C)Nc2ccc3c(c21)C(=C(c1ccccc1)c1ccccc1)Oc1ccc(F)cc1-3`, the Ki on Progesterone receptor [2] is > 100 nM. Further, in test [6], the Efficacy result was “inactive”. The EC50 entry on Progesterone receptor [7] is given as “Not Active”. The IC50 at Progesterone receptor [8] worked out at 1930 nM. Also, the Efficacy in [9] was 90%.
Consider `CCC/C=C1\Oc2ccc(F)cc2-c2ccc3c(c21)C(C)=CC(C)(C)N3`, for which the Ki on Progesterone receptor [2] worked out at 3.1 nM. Further, the Efficacy in test [3] turned out to be 90%. Also, the IC50 entry on Progesterone receptor [10] is recorded as “Not Active”. Further, the Efficacy entry in [4] was “inactive”. The same compound registered a concentration giving a half-maximal response (EC50) on Progesterone receptor [5] of 28 nM.
Consider `CC1=CC(C)(C)Nc2ccc3c(c21)/C(=C/C#N)Oc1ccc(F)cc1-3`, for which the Ki at Progesterone receptor [2] was 45 nM. In addition, the Efficacy in [3] was determined as 70%; in test [9] it was 75%. On Progesterone receptor [8], this compound yielded an IC50 of 65 nM. In addition, the EC50 on Progesterone receptor [5] turned out to be 2700 nM.
In the case of `CC1=CC(C)(C)Nc2ccc3c(c21)C(=C1SCCCS1)Oc1ccc(F)cc1-3`, the IC50 result is “Not Active” at Progesterone receptor [1], 180 nM against Androgen receptor, 681 nM in test [12] and 146 nM at Glucocorticoid receptor. Moreover, the Efficacy in test [3] was 151%; in test [11], 92%. Moreover, the Efficacy result in test [4] is “inactive”. At Progesterone receptor [5], a half-maximal effect (EC50) was put at 2.1 nM.
Consider `C=C(/C=C1\Oc2ccc(F)cc2-c2ccc3c(c21)C(C)=CC(C)(C)N3)C(C)C`, for which the IC50 entry against Progesterone receptor [1] is given as “Not Active”. The compound also registered a Ki on Progesterone receptor [2] of 26 nM. Besides, the Efficacy in test [3] is 122%. Further, the Efficacy entry in test [4] is “inactive”. For the same compound, the EC50 on Progesterone receptor [5] came out at 29 nM.
On to `CC1=CC(C)(C)Nc2ccc3c(c21)/C(=C/c1ccccc1C)Oc1ccccc1-3`, for which, on Progesterone receptor [1], the IC50 entry is listed as “Not Active”. Further, the Efficacy result in [4] is “inactive”.
On to `CC(=O)/C=C1\Oc2ccc(F)cc2-c2ccc3c(c21)C(C)=CC(C)(C)N3`, for which the Ki at Progesterone receptor [2] is > 100 nM. In test [6], the Efficacy result is “inactive”. The concentration giving a half-maximal response (EC50) entry at Progesterone receptor [7] is “Not Active”. The IC50 on Progesterone receptor [8] amounted to 124 nM. The same compound had an Efficacy in test [9] of 91%.
For `CC/C(C)=C1/Oc2ccc(F)cc2-c2ccc3c(c21)C(C)=CC(C)(C)N3`, on Progesterone receptor [2], affinity was put at a Ki of 16.7 nM. The Efficacy in test [3] is 64%; in test [9], 38%. Further, on Progesterone receptor [8], the IC50 amounted to 980 nM. This compound yielded an EC50 on Progesterone receptor [5] of 27 nM.
On the same counts, the results for `CC1=CC(C)(C)Nc2ccc3c(c21)/C(=C/C1CCCCC1)Oc1ccc(F)cc1-3` are > 100 nM, 28%, 70%, 800 nM and 48 nM.
`CC1=CC(C)(C)Nc2ccc3c(c21)/C(=C/C=O)Oc1ccc(F)cc1-3`: the Ki on Progesterone receptor [2] was > 100 nM. For the same compound, the Efficacy entry in test [6] is “inactive”. Moreover, the EC50 entry on Progesterone receptor [7] is recorded as “Not Active”. This compound also gave an IC50 against Progesterone receptor [8] of 243 nM. In test [9], the Efficacy was found to be 97%.
